Data published in paper PMC5698418 (Nature Communications, 2017).
Structures can show the parent of a compound that is named as a salt. Where two headings read alike, the source gives them in different places.

Tested on: BDNF-induced nuclear Arc expression in primary cortical neurons
Test: Chemogenomic screen: high-content image-based assay of BDNF-induced nuclear Arc expression (96-well)
Type: cell-based, mouse
Summary of the method: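 Nuclear Arc immunofluorescence is quantified automatically within an acetyl-H3K9-defined nuclear mask from ×40 images. Cultures are DIV13 mouse forebrain cortical neurons seeded at 30,000 per well and exposed to BDNF plus compound at a final 16.7 µM, with triplicate biological replicates.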

[1] = BDNF-induced nuclear Arc expression, primary cortical neurons, chemogenomic screen
[2] = chemogenomic (SMART) screen, BDNF-induced nuclear Arc expression, primary cortical neurons, BDNF control 19.5
[3] = nuclear Arc-positive cells relative to DMSO + BDNF control, negative values = decrease

O=c1[nH]c2ccccc2n1C1CCN(CCCC(c2ccc(F)cc2)c2ccc(F)cc2)CC1 [Pimozide]
Percentage of cell with nuclear Arc immunostaining above 2σ threshold [1]: 1.1%

NS(=O)(=O)c1cc2c(cc1Cl)NC(C1CC3C=CC1C3)NS2(=O)=O (centres unmarked) [Cyclothiazide]
Percentage of cell with nuclear Arc immunostaining above 2σ threshold [1]: 8.4%

O=C(O)c1cccc(-c2noc(-c3ccccc3F)n2)c1 [Ataluren]
Percentage of cell with nuclear Arc immunostaining above 2σ threshold [2]: 38.6%
Fold-change — Normalized to DMSO control (BDNF) [3]: 2.0 fold

Cc1ncc(CSSCc2cnc(C)c(O)c2CO)c(CO)c1O [Pyrithioxine]
Percentage of cell with nuclear Arc immunostaining above 2σ threshold [2]: 21.3%
Fold-change — Normalized to DMSO control (BDNF) [3]: 1.1 fold

CC(=O)Nc1nnc(S(N)(=O)=O)s1 [Acetazolamide]
Percentage of cell with nuclear Arc immunostaining above 2σ threshold [1]: 4.9%

CC(CN(C)C)CN1c2ccccc2CCc2ccccc21 (centres unmarked) [Trimipramine maleate]
Percentage of cell with nuclear Arc immunostaining above 2σ threshold [2]: 21.9%
Fold-change — Normalized to DMSO control (BDNF) [3]: 1.1 fold

CNCCC(Oc1ccccc1OC)c1ccccc1 (centres unmarked) [Nisoxetine hydrochloride]
Percentage of cell with nuclear Arc immunostaining above 2σ threshold: 19.1%

O=C(c1ccccc1)c1ccc2n1CCC2C(=O)O (centres unmarked) [Ketorolac]
Percentage of cell with nuclear Arc immunostaining above 2σ threshold [2]: 36.8%
Fold-change — Normalized to DMSO control (BDNF) [3]: 1.9 fold

CSc1ccc2c(c1)N(CCC1CCCCN1C)c1ccccc1S2 (centres unmarked) [Thioridazine]
Percentage of cell with nuclear Arc immunostaining above 2σ threshold [1]: 0.0%

CCCC(CCC)C(=O)O [Valproate]
Percentage of cell with nuclear Arc immunostaining above 2σ threshold [1]: 8.4%

CNCCCN1c2ccccc2CCc2ccccc21 [Desipramine]
Percentage of cell with nuclear Arc immunostaining above 2σ threshold [1]: 11.3%

Cc1ccc(C23CNCC2C3)cc1 (centres unmarked) [Bicifadine]
Percentage of cell with nuclear Arc immunostaining above 2σ threshold [1]: 7.2%

O=C(CCCN1CCC(n2c(O)nc3ccccc32)CC1)c1ccc(F)cc1 [Benperidol]
Percentage of cell with nuclear Arc immunostaining above 2σ threshold [2]: 18.9%

Cc1nc2n(c(=O)c1CCN1CCC(c3noc4cc(F)ccc34)CC1)CCCC2 [Risperidone]
Percentage of cell with nuclear Arc immunostaining above 2σ threshold: 6.3%

C[C@@H]1C(=O)O[C@H]2C[C@@]34[C@H]5C[C@@H](C(C)(C)C)[C@]36[C@@H](OC(=O)[C@@H]6O)O[C@@]4(C(=O)O5)[C@]21O [Ginkgolide A]
Percentage of cell with nuclear Arc immunostaining above 2σ threshold [2]: 19.3%

O=C(/C=C/C=C/c1ccc2c(c1)OCO2)N1CCCCC1 [Piperine]
Percentage of cell with nuclear Arc immunostaining above 2σ threshold [2]: 18.5%

CN(C)CCCOc1nn(Cc2ccccc2)c2ccccc12 [Benzydamine]
Percentage of cell with nuclear Arc immunostaining above 2σ threshold [2]: 25.2%
Fold-change — Normalized to DMSO control (BDNF) [3]: 1.3 fold

COc1ccc2cccc(CCNC(C)=O)c2c1 [Agomelatine]
Percentage of cell with nuclear Arc immunostaining above 2σ threshold [2]: 17.6%

CCN(CC)CCNC(=O)c1cc(Br)c(N)cc1OC [Bromopride]
Percentage of cell with nuclear Arc immunostaining above 2σ threshold [2]: 27.7%
Fold-change — Normalized to DMSO control (BDNF) [3]: 1.4 fold

O=C(O[C@@H]1Cc2c(O)cc(O)cc2O[C@@H]1c1cc(O)c(O)c(O)c1)c1cc(O)c(O)c(O)c1 [(-)-Epigallocatechin gallate]
Percentage of cell with nuclear Arc immunostaining above 2σ threshold [2]: 38.0%
Fold-change — Normalized to DMSO control (BDNF) [3]: 1.9 fold

CC(C)c1c(CN(C)C(C)Cc2ccccc2)n(C)n(-c2ccccc2)c1=O (centres unmarked) [Famprofazone]
Percentage of cell with nuclear Arc immunostaining above 2σ threshold: 18.1%

O=C(CCNNC(=O)c1ccncc1)NCc1ccccc1 [Nialamide]
Percentage of cell with nuclear Arc immunostaining above 2σ threshold [2]: 29.9%
Fold-change — Normalized to DMSO control (BDNF) [3]: 1.5 fold

O=C1Cc2cc(CCN3CCN(c4nsc5ccccc45)CC3)c(Cl)cc2N1 [Ziprasidone]
Percentage of cell with nuclear Arc immunostaining above 2σ threshold [1]: 3.3%

CCNC(=O)CC[C@H](N)C(=O)O [Theanine]
Percentage of cell with nuclear Arc immunostaining above 2σ threshold [1]: 9.1%

CC#C[C@]1(O)CC[C@H]2[C@@H]3CCC4=CC(=O)CCC4=C3[C@@H](c3ccc(N(C)C)cc3)C[C@@]21C [Mifepristone]
Percentage of cell with nuclear Arc immunostaining above 2σ threshold [2]: 43.7%
Fold-change — Normalized to DMSO control (BDNF) [3]: 2.2 fold

Cc1cc2c(s1)Nc1ccccc1N=C2N1CCN(C)CC1 [Olanzapine]
Percentage of cell with nuclear Arc immunostaining above 2σ threshold: 19.4%

CC(C)C[C@H](NC(=O)[C@H](CCCCN)NC(=O)[C@H](CCCN=C(N)N)NC(=O)[C@H](C)NC(=O)[C@H](CO)NC(=O)[C@H](CCCCN)NC(=O)[C@H](CCCN=C(N)N)NC(=O)[C@H](C)NC(=O)CNC(=O)[C@@H](NC(=O)[C@H](Cc1ccccc1)NC(=O)CNC(=O)CNC(=O)[C@@H](N)Cc1ccccc1)[C@@H](C)O)C(=O)N[C@@H](C)C(=O)N[C@@H](CC(N)=O)C(=O)N[C@@H](CCC(N)=O)C(=O)O [Nociceptin]
Percentage of cell with nuclear Arc immunostaining above 2σ threshold: 21.6%
Fold-change — Normalized to DMSO control (BDNF) [3]: 1.1 fold

C=C[C@@]1(C)CC(=O)[C@]2(O)[C@@]3(C)[C@@H](O)CCC(C)(C)[C@@H]3[C@H](O)[C@H](OC(C)=O)[C@@]2(C)O1 [Forskolin]
Percentage of cell with nuclear Arc immunostaining above 2σ threshold [2]: 29.3%
Fold-change — Normalized to DMSO control (BDNF) [3]: 1.5 fold

COC1=CC(=O)O[C@@H](/C=C/c2ccc3c(c2)OCO3)C1 [Kavahin]
Percentage of cell with nuclear Arc immunostaining above 2σ threshold: 36.5%
Fold-change — Normalized to DMSO control (BDNF) [3]: 1.9 fold

CC1(C)O[C@@H]2[C@@H](CO[C@@]3(COS(N)(=O)=O)OC(C)(C)O[C@@H]23)O1 [Topiramate]
Percentage of cell with nuclear Arc immunostaining above 2σ threshold [1]: 8.8%

COc1cc2c(cc1OC)-c1cc3ccc(OC)c(OC)c3c[n+]1CC2 [Palmatine]
Percentage of cell with nuclear Arc immunostaining above 2σ threshold: 1.1%
Fold-change — Normalized to DMSO control (BDNF) (nuclear Arc-positive cells relative to DMSO control (BDNF), negative = decrease): -17.5 fold

NC(=O)CN1CCCC1=O [Piracetam]
Percentage of cell with nuclear Arc immunostaining above 2σ threshold [1]: 10.5%

CN(C)CCC=C1c2ccccc2CCc2ccccc21 [Amitriptyline]
Percentage of cell with nuclear Arc immunostaining above 2σ threshold [2]: 12.3%

O=C(O)CCCNC(=O)c1cccnc1 [Pikamilone]
Percentage of cell with nuclear Arc immunostaining above 2σ threshold [2]: 38.6%
Fold-change — Normalized to DMSO control (BDNF) [3]: 2.0 fold

NC(=O)C1=CN([C@@H]2O[C@H](COP(=O)(O)OP(=O)(O)OC[C@H]3O[C@@H](n4cnc5c(N)ncnc54)[C@H](O)[C@@H]3O)[C@@H](O)[C@H]2O)C=CC1 [NADH]
Percentage of cell with nuclear Arc immunostaining above 2σ threshold [2]: 25.0%
Fold-change — Normalized to DMSO control (BDNF) [3]: 1.3 fold

OC(CCN1CCCCC1)(c1ccccc1)C1CCCCC1 (centres unmarked) [Benzhexol hydrochloride]
Percentage of cell with nuclear Arc immunostaining above 2σ threshold [2]: 20.4%
Fold-change — Normalized to DMSO control (BDNF) [3]: 1.0 fold

O=c1c(-c2ccc(O)cc2)coc2cc(O)cc(O)c12 [Genistein]
Percentage of cell with nuclear Arc immunostaining above 2σ threshold [2]: 31.7%
Fold-change — Normalized to DMSO control (BDNF) [3]: 1.6 fold

O=C(c1ccc2nccnc2c1)N1CCCCC1 [Ampalex]
Percentage of cell with nuclear Arc immunostaining above 2σ threshold [2]: 40.8%
Fold-change — Normalized to DMSO control (BDNF) [3]: 2.1 fold

CCc1ccc(CCOc2ccc(CC3SC(=O)NC3=O)cc2)nc1 (centres unmarked) [Pioglitazone]
Percentage of cell with nuclear Arc immunostaining above 2σ threshold [2]: 15.4%

O=C1c2cc3c(cc2OC2CCCN12)OCCO3 (centres unmarked) [CX-614]
Percentage of cell with nuclear Arc immunostaining above 2σ threshold: 13.1%
Fold-change — Normalized to DMSO control (BDNF) [3]: -1.5 fold

CCN(CC)CCNC(=O)c1cc(S(C)(=O)=O)ccc1OC [Tiapride hydrochloride]
Percentage of cell with nuclear Arc immunostaining above 2σ threshold [2]: 20.9%
Fold-change — Normalized to DMSO control (BDNF) [3]: 1.1 fold

CN(C)CCC[C@@]1(c2ccc(F)cc2)OCc2cc(C#N)ccc21 [Escitalopram oxalate]
Percentage of cell with nuclear Arc immunostaining above 2σ threshold [2]: 26.3%
Fold-change — Normalized to DMSO control (BDNF) [3]: 1.4 fold

CN1[C@H]2C[C@H](OC(=O)[C@H](CO)c3ccccc3)C[C@@H]1[C@@H](O)C2 [Anisodamine]
Percentage of cell with nuclear Arc immunostaining above 2σ threshold: 25.5%
Fold-change — Normalized to DMSO control (BDNF) [3]: 1.3 fold

O=C([O-])CCCNC(=O)c1cccnc1.[Na+] [Picamilon sodium salt]
Percentage of cell with nuclear Arc immunostaining above 2σ threshold [2]: 29.2%
Fold-change — Normalized to DMSO control (BDNF) [3]: 1.5 fold

CN(C)CCC=C1c2ccccc2C=Cc2ccccc21 [Cyclobenzaprine]
Percentage of cell with nuclear Arc immunostaining above 2σ threshold [2]: 14.1%

CN1CCN2c3ccccc3Cc3ccccc3C2C1 (centres unmarked) [Mianserin]
Percentage of cell with nuclear Arc immunostaining above 2σ threshold [2]: 18.5%

NC(=O)c1cn(Cc2c(F)cccc2F)nn1 [Rufinamide]
Percentage of cell with nuclear Arc immunostaining above 2σ threshold [2]: 20.3%
Fold-change — Normalized to DMSO control (BDNF) [3]: 1.0 fold

CC[N+](CC)(CCNC(=O)C(=O)NCC[N+](CC)(CC)Cc1ccccc1Cl)Cc1ccccc1Cl [Ambenonium]
Percentage of cell with nuclear Arc immunostaining above 2σ threshold: 15.1%

COc1cc2c(NC3CCN(C)CC3)nc(N3CCCN(C)CC3)nc2cc1OCCCN(C)C [UNC 0224]
Percentage of cell with nuclear Arc immunostaining above 2σ threshold [2]: 40.5%
Fold-change — Normalized to DMSO control (BDNF) [3]: 2.1 fold

CC(=C(CCO)SSCC1CCCO1)N(C=O)Cc1cnc(C)nc1N (stereo in doubt) [Fursultiamine]
Percentage of cell with nuclear Arc immunostaining above 2σ threshold: 15.4%

Cc1ccc2c(c1)c1c(n2CCc2ccc(C)nc2)CCN(C)C1 [Latrepirdine]
Percentage of cell with nuclear Arc immunostaining above 2σ threshold [2]: 34.3%
Fold-change — Normalized to DMSO control (BDNF) [3]: 1.8 fold
